Paper PMC9181887, “In Vitro Antithrombotic, Hematological Toxicity, and Inhibitor Studies of Protocatechuic, Isovanillic, and p-Hydroxybenzoic Acids from Maclura tricuspidata (Carr.) Bur” (Molecules, 2022)
Read-outs that look alike come from different tables or passages of the source.

How the values were obtained:
[1] = target: T1, human FXIIIa (Homo sapiens, UniProt P00488); assay: FXIIIa activity and kinetic/inhibitor assay; format: biochemical; conditions: for FXIIIa activity: 1–20 μg, vs control, p < 0.05; for IC50 / Ki / Kik/Kiv / Kcat / Vmax: FXIIIa; for inhibition type against FXIIIa: from Kik/Kiv ratio and Lineweaver–Burk plots
T1 construct: purchased Sigma-Aldrich
T1 sequence (P00488 39-732 limits assumed): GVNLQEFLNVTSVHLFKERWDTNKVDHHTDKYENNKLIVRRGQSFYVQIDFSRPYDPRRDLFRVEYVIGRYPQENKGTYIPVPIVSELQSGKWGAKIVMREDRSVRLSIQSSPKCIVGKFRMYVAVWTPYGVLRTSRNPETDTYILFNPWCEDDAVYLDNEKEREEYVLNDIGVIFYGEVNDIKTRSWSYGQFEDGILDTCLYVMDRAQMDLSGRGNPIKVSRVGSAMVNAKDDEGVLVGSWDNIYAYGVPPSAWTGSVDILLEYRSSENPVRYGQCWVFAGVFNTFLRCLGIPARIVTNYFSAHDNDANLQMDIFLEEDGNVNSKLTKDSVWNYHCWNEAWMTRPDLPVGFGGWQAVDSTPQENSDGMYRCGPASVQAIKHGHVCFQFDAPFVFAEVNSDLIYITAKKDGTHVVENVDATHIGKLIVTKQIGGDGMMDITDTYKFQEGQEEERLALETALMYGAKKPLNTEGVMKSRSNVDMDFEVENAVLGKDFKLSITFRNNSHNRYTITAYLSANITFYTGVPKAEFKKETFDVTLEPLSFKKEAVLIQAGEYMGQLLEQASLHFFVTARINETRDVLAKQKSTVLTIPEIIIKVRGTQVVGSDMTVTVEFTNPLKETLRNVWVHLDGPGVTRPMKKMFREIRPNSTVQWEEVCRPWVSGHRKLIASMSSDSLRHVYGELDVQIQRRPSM
Protocol: To determine the thrombin activity, various concentrations of compounds were treated with 1 U human thrombin in 100 μL of 20 mM Tris-HCl, as previously described. The reaction solutions were incubated for 15 min at 37 °C. After the incubation, 1 mM chromogenic substrate for thrombin (S-2238, HD-Phe-Pip-Arg-p-nitroanilide) was added and incubated for 1 h at 37 °C. Absorbance was measured at 405 nm to determine the enzymatic activity. To determine FXa activity, various concentrations of the compounds were mixed with 1 U human FXa in 20 mM Tris-HCl (pH 7.4) in volume of 100 μL, followed by incubation for 15 min at 37 °C. After adding 1 mM N-benzoyl-Ile-Glu-Gly-Arg-p-nitroanilide, a highly specific chromogenic peptide substrate for FXa, the reaction solutions were incubated for 1 h at 37 °C. The residual activity of FXa was measured at 405 nm and is presented as a percentage of inhibition. To investigate FXIIIa activity, various concentrations of the compounds were mixed with 1 U human FXIIIa in 20 mM Tris-HCl (pH 7.4) in a volume of 100 μL, followed by, incubation for 15 min at 37 °C as previously described. The residual activity of FXIIIa was measured using casein and fibrinogen-HRP, according to the manufacturer’s instructions, and was presented as a percentage of inhibition. The negative control was generated by treatment with only thrombin, FXa, or FXIIIa without treatment with any compound.
Kinetic assays were performed using PA, IVA, and 4-HA for procoagulant proteases (thrombin and FXa) and fibrinoligase (FXIIIa). The kinetic constants were calculated using Lineweaver–Burk plots based on the initial reaction rates with different concentrations (0.1, 0.5, 1, and 2 mM) of each substrate for thrombin, FXa, and FXIIIa treated with or without the compounds (0.065, 0.13, 0.33, 0.65, and 1.30 mM [1–20 μg]) in a total volume of 100 μL. The Michaelis–Menten constant (Km) and maximal velocity (Vmax) were calculated from the x and y intercepts, respectively. […] The median inhibitory concentration (IC50) was defined as the concentration required to reach a 50% reduction in the activity of the three target factors. The Kik and Kiv inhibition constants were calculated using a previously described method. The inhibition type of the compounds against the three target factors was evaluated according to a previously described inhibition type definition.

[2] = tested on: platelet aggregation; design: method as in PMID 20824965, PMID 9869276; conditions: ADP or collagen-induced platelet aggregation; cited from earlier work
[3] = tested on: human plasma; assay: Coagulation assay, PT; format: biochemical; conditions: 50–100 μg
Protocol: (§1) A coagulation assay was performed to evaluate the prolongation potential of the compounds in blood coagulation by measuring APTT, PT, and TT, as previously described. After pretreatment of the compounds with human plasma for 10 min, APTT, PT, and TT were determined by a coagulometer (Thrombostat 1) manufactured by Behnk Elektronik, Germany.

[4] = tested on: diabetic rats; design: method as in PMID 20824965, PMID 9869276; conditions: cited from earlier work
[5] = tested on: platelet aggregation; design: method as in PMID 20824965, PMID 9869276; conditions: sodium arachidonate-induced platelet aggregation; cited from earlier work
[6] = tested on: human plasma; assay: Coagulation assay, TT; format: biochemical; conditions: 50–100 μg
Protocol: as §1

[7] = tested on: erythrocytes; assay: Hematological study, erythrocyte count by hemocytometer; format: cell-based; conditions: up to 200 μg/mL, 10 min, vs control
Protocol: Figure 1 Blood cytotoxic effect of PA (A), IVA (B), and 4-HA (C). Aliquots of washed platelets (10^3/mL), erythrocytes (10^6/mL), and leukocytes (10^3/mL) were treated with or without the compounds for 10 min and cell number was determined by hemocytometer counts. Each value is the mean ± SD of triplicate measurements. * p < 0.05 and ** p < 0.01, compared to each control groups. 10–500, 10–100 μg of each compound treated.
Total white blood cells (leukocytes) and red blood cells (erythrocytes) were counted using a hemocytometer, as previously described. Blood was diluted 1:200 with Hayem’s fluid and the cells were counted in a loaded hemocytometer chamber. To count the blood platelets, blood was diluted in a ratio of 1:20 with a diluting fluid, and four large (1 mm^2) corner squares of the hemocytometer were counted under a light microscope. Aliquots of leukocytes (0.1 mL; 10^3/mL), erythrocytes (0.1 mL; 10^6/mL), and platelets (0.1 mL; 10^3/mL) were treated with or without the compounds for 10 min.

FXIIIa activity [1]	IC50 [1] [µM]	Ki [1] [µM]	Kik/Kiv [1]	Kcat ([1]; compound 0.065 mM (1 μg)) [s⁻¹]	Vmax ([1]; compound 0.065 mM (1 μg)) [mU/min]	Kcat ([1]; compound 0.13 mM (2 μg)) [s⁻¹]	Vmax ([1]; compound 0.13 mM (2 μg)) [mU/min]	Kcat ([1]; compound 0.325 mM (5 μg)) [s⁻¹]	Vmax ([1]; compound 0.325 mM (5 μg)) [mU/min]	Kcat ([1]; compound 0.65 mM (10 μg)) [s⁻¹]	Vmax ([1]; compound 0.65 mM (10 μg)) [mU/min]	Kcat ([1]; compound 1.3 mM (20 μg)) [s⁻¹]	Vmax ([1]; compound 1.3 mM (20 μg)) [mU/min]	inhibition type against FXIIIa [1]	Structure (SMILES)	effect on the number of erythrocytes [7]	further results
significant reductions	1960	1960	6005.6	88.6 ± 0.10	0.142 ± 0.04	87.7 ± 0.09	0.141 ± 0.04	77.2 ± 0.05	0.124 ± 0.03	70.5 ± 0.07	0.113 ± 0.03	62.0 ± 0.06	0.099 ± 0.04	non-competitive inhibition type	O=C(O)c1ccc(O)cc1 [4-HA, 4-hydroxybenzoic acid]	–	IC50 [2]: 1000 to 3400 µM; PT, fold of control [3]: 1.25–1.26 fold; prothrombin time (PT) ([3]; control 20.8 ± 0.7 s, p < 0.05): 25.9 to 26.2 s; plasma glucose levels [4]: reducing plasma glucose levels in a dose-dependent manner; IC50 [5]: 300 µM; TT, fold of control [6]: 1.14–1.15 fold; thrombin time (TT) ([6]; control 9.4 ± 0.2 s, p < 0.01): 10.7 to 10.8 s
significant reductions	1920	1920	10.4	89.3 ± 0.09	0.143 ± 0.02	84.5 ± 0.07	0.135 ± 0.03	80.5 ± 0.05	0.129 ± 0.04	80.5 ± 0.09	0.129 ± 0.03	68.7 ± 0.08	0.110 ± 0.04	non-competitive inhibition type	COc1ccc(C(=O)O)cc1O [IVA, isovanillic acid]	did not show any effect	–

Structure (SMILES)	FXIIIa activity [1]	IC50 [1] [µM]	Ki [1] [µM]	Kik/Kiv [1]	Kcat ([1]; compound 0.065 mM (1 μg)) [s⁻¹]	Vmax ([1]; compound 0.065 mM (1 μg)) [mU/min]	Kcat ([1]; compound 0.13 mM (2 μg)) [s⁻¹]	Vmax ([1]; compound 0.13 mM (2 μg)) [mU/min]	Kcat ([1]; compound 0.325 mM (5 μg)) [s⁻¹]	Vmax ([1]; compound 0.325 mM (5 μg)) [mU/min]	Kcat ([1]; compound 0.65 mM (10 μg)) [s⁻¹]	Vmax ([1]; compound 0.65 mM (10 μg)) [mU/min]	Kcat ([1]; compound 1.3 mM (20 μg)) [s⁻¹]	Vmax ([1]; compound 1.3 mM (20 μg)) [mU/min]	inhibition type against FXIIIa [1]	effect on the number of erythrocytes [7]	further results
O=C(O)c1ccc(O)c(O)c1 [PA, protocatechuic acid]	significant reductions	1640	1630	6.1	91.1 ± 0.03	0.146 ± 0.03	84.4 ± 0.06	0.135 ± 0.02	80.1 ± 0.05	0.128 ± 0.03	71.8 ± 0.07	0.115 ± 0.04	62.5 ± 0.04	0.100 ± 0.02	non-competitive inhibition type	did not show any effect	–
